{"source": "PubChem BioAssay AID1590", "about": "(NINDS Approved Drug Screening Program, 2009)", "note": "Results filed as inconclusive are left out.", "data": [{"system": "PC12 inducible Htt-N63-148Q toxicity rescue", "experiment": "protection against mutant Htt fragment cytotoxicity – PC12 cells, inducible expression, ROSShtt, dose response (AID 1590)", "units": {"EC50": "µM"}, "values": [{"smiles": "CN(C)[C@@H]1C(=O)C(C(N)=O)=C(O)[C@@]2(O)C(=O)C3=C(O)c4c(O)ccc(Cl)c4[C@@H](O)[C@H]3C[C@@H]12", "EC50": 1}, {"smiles": "CN(C)[C@@H]1C(=O)C(C(N)=O)=C(O)[C@@]2(O)C(=O)C3=C(O)c4c(O)cccc4[C@@](C)(O)[C@H]3[C@H](O)[C@@H]12", "EC50": 1}, {"smiles": "CCCNCC(O)COc1ccccc1C(=O)CCc1ccccc1", "note": "(stereo unspecified)", "EC50": 10}, {"smiles": "O=C(O)C1CCCNC1", "note": "(stereo unspecified)", "EC50": 10}, {"smiles": "N[C@H](C(=O)O)[C@@H]1CC(Cl)=NO1", "EC50": 10}, {"smiles": "C=C1c2c(Cl)ccc(O)c2C(O)=C2C(=O)[C@]3(O)C(O)=C(C(N)=O)C(=O)[C@@H](N(C)C)[C@@H]3[C@@H](O)[C@H]12", "EC50": 0.01}, {"smiles": "CCN(Cc1ccncc1)C(=O)C(CO)c1ccccc1", "note": "(stereo unspecified)", "EC50": 0.01}, {"smiles": "COc1c(C)c2c(c(O)c1C/C=C(\\C)CCC(=O)O)C(=O)OC2", "EC50": 10}, {"smiles": "CC(C)NCC(O)c1ccc(O)c(O)c1", "note": "(stereo unspecified)", "EC50": 15}, {"smiles": "CN(C)[C@@H]1C(=O)C(C(N)=O)=C(O)[C@@]2(O)C(=O)C3=C(O)c4c(O)cccc4[C@@](C)(O)[C@H]3C[C@@H]12", "EC50": 0.1}, {"smiles": "C=C1c2cccc(O)c2C(O)=C2C(=O)[C@]3(O)C(O)=C(C(N)=O)C(=O)[C@@H](N(C)C)[C@@H]3[C@@H](O)[C@H]12", "EC50": 0.01}]}]}
